Laboratory results published in the supplement of paper PMC10307832.

Key:
Assay in all cases: relative viability (nuclei count vs DMSO), 5 days (fraction); higher = more cells survive
NCI-H2347 = test system: NCI-H2347
How it was run: (§1)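 Relative viability divides the nuclei count in treated wells by that in vehicle wells. Lung cancer cell lines were seeded in 1536-well plates, dosed by pin tool the next day, and fixed and stained after 5 days in one step with final 0.05% Triton X-100, 1% formaldehyde and 1 ug/ml Hoechst. Dosing was a single drug or a fixed anchor-drug dose plus five library-drug doses (not always all listed) in √10 steps, and values are medians of duplicate plates imaged at 4×.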

NCI-H650 = test system: NCI-H650
How it was run: as §1

NCI-H2009 = test system: NCI-H2009
How it was run: as §1

HCC-44 = test system: HCC-44
How it was run: as §1

NCI-H727 = test system: NCI-H727
How it was run: as §1

NCI-H2170 = test system: NCI-H2170
How it was run: as §1

NCI-H520 = test system: NCI-H520
How it was run: as §1

SW 1573 = test system: SW 1573
How it was run: as §1

NCI-H1793 = test system: NCI-H1793
How it was run: as §1

NCI-H23 = test system: NCI-H23
How it was run: as §1

NCI-H1437 = test system: NCI-H1437
How it was run: as §1

LOU-NH91 = test system: LOU-NH91
How it was run: as §1

ChaGo-K-1 = test system: ChaGo-K-1
How it was run: as §1

NCI-H2126 = test system: NCI-H2126
How it was run: as §1

EPLC-272H = test system: EPLC-272H
How it was run: as §1

NCI-H460 = test system: NCI-H460
How it was run: as §1

NCI-H2023 = test system: NCI-H2023
How it was run: as §1

NCI-H2405 = test system: NCI-H2405
How it was run: as §1

NCI-H647 = test system: NCI-H647
How it was run: as §1

NCI-H441 = test system: NCI-H441
How it was run: as §1

EMC-BAC-2 = test system: EMC-BAC-2
How it was run: as §1

LCLC-103H = test system: LCLC-103H
How it was run: as §1

HOP-62 = test system: HOP-62
How it was run: as §1

Structure (SMILES): O=C(O)CCCCC(CCSCc1ccccc1)SCc1ccccc1 (stereo not given) [CPI-613] + Cc1cc(Nc2cc(N3CCN(C)CC3)nc(Sc3ccc(NC(=O)C4CC4)cc3)n2)n[nH]1 [Tozasertib] (partner 0.1 µM)
- relative viability (NCI-H2347; first compound 5 µM): 0.526
- relative viability (NCI-H2347; first compound 15.81 µM): 0.561
- relative viability (NCI-H2347; first compound 50 µM): 0.566
- relative viability (NCI-H2347; first compound 158.11 µM): 0.552
- relative viability (NCI-H2347; first compound 500 µM): 0.524
- relative viability (NCI-H650; first compound 5 µM): 0.702
- relative viability (NCI-H650; first compound 15.81 µM): 0.623
- relative viability (NCI-H650; first compound 50 µM): 0.699
- relative viability (NCI-H650; first compound 158.11 µM): 0.546
- relative viability (NCI-H650; first compound 500 µM): 0.586
- relative viability (NCI-H2009; first compound 5 µM): 0.67
- relative viability (NCI-H2009; first compound 15.81 µM): 0.696
- relative viability (NCI-H2009; first compound 50 µM): 0.699
- relative viability (NCI-H2009; first compound 158.11 µM): 0.136
- relative viability (NCI-H2009; first compound 500 µM): 0.0212
- relative viability (HCC-44; first compound 5 µM): 0.936
- relative viability (HCC-44; first compound 15.81 µM): 0.845
- relative viability (HCC-44; first compound 50 µM): 0.969
- relative viability (HCC-44; first compound 158.11 µM): 0.322
- relative viability (HCC-44; first compound 500 µM): 0.0777
- relative viability (NCI-H727; first compound 5 µM): 0.557
- relative viability (NCI-H727; first compound 15.81 µM): 0.697
- relative viability (NCI-H727; first compound 50 µM): 0.685
- relative viability (NCI-H727; first compound 158.11 µM): 0.369
- relative viability (NCI-H727; first compound 500 µM): 0.455
- relative viability (NCI-H2170; first compound 5 µM): 0.732
- relative viability (NCI-H2170; first compound 15.81 µM): 0.55
- relative viability (NCI-H2170; first compound 50 µM): 0.694
- relative viability (NCI-H2170; first compound 158.11 µM): 0.347
- relative viability (NCI-H2170; first compound 500 µM): 0.183
- relative viability (NCI-H520; first compound 5 µM): 0.42
- relative viability (NCI-H520; first compound 15.81 µM): 0.378
- relative viability (NCI-H520; first compound 50 µM): 0.352
- relative viability (NCI-H520; first compound 158.11 µM): 0.48
- relative viability (NCI-H520; first compound 500 µM): 0.375
- relative viability (SW 1573; first compound 5 µM): 0.232
- relative viability (SW 1573; first compound 15.81 µM): 0.196
- relative viability (SW 1573; first compound 50 µM): 0.15
- relative viability (SW 1573; first compound 158.11 µM): 0.103
- relative viability (SW 1573; first compound 500 µM): 0.0651
- relative viability (NCI-H1793; first compound 5 µM): 0.297
- relative viability (NCI-H1793; first compound 15.81 µM): 0.281
- relative viability (NCI-H1793; first compound 50 µM): 0.308
- relative viability (NCI-H1793; first compound 158.11 µM): 0.149
- relative viability (NCI-H1793; first compound 500 µM): 0.0274
- relative viability (NCI-H23; first compound 5 µM): 0.348
- relative viability (NCI-H23; first compound 15.81 µM): 0.284
- relative viability (NCI-H23; first compound 50 µM): 0.337
- relative viability (NCI-H23; first compound 158.11 µM): 0.223
- relative viability (NCI-H23; first compound 500 µM): 0.0061
- relative viability (NCI-H1437; first compound 5 µM): 0.374
- relative viability (NCI-H1437; first compound 15.81 µM): 0.39
- relative viability (NCI-H1437; first compound 50 µM): 0.407
- relative viability (NCI-H1437; first compound 158.11 µM): 0.156
- relative viability (NCI-H1437; first compound 500 µM): 0.131
- relative viability (LOU-NH91; first compound 5 µM): 0.651
- relative viability (LOU-NH91; first compound 15.81 µM): 0.611
- relative viability (LOU-NH91; first compound 50 µM): 0.62
- relative viability (LOU-NH91; first compound 158.11 µM): 0.684
- relative viability (LOU-NH91; first compound 500 µM): 0.643
- relative viability (ChaGo-K-1; first compound 5 µM): 0.207
- relative viability (ChaGo-K-1; first compound 15.81 µM): 0.185
- relative viability (ChaGo-K-1; first compound 50 µM): 0.234
- relative viability (ChaGo-K-1; first compound 158.11 µM): 0.148
- relative viability (ChaGo-K-1; first compound 500 µM): 0.16
- relative viability (NCI-H2126; first compound 5 µM): 0.775
- relative viability (NCI-H2126; first compound 15.81 µM): 0.778
- relative viability (NCI-H2126; first compound 50 µM): 0.817
- relative viability (NCI-H2126; first compound 158.11 µM): 0.281
- relative viability (NCI-H2126; first compound 500 µM): 0.0758
- relative viability (EPLC-272H; first compound 5 µM): 0.285
- relative viability (EPLC-272H; first compound 15.81 µM): 0.279
- relative viability (EPLC-272H; first compound 50 µM): 0.242
- relative viability (EPLC-272H; first compound 158.11 µM): 0.0813
- relative viability (EPLC-272H; first compound 500 µM): 0.0387
- relative viability (NCI-H460; first compound 5 µM): 0.497
- relative viability (NCI-H460; first compound 15.81 µM): 0.28
- relative viability (NCI-H460; first compound 50 µM): 0.457
- relative viability (NCI-H460; first compound 158.11 µM): 0.371
- relative viability (NCI-H460; first compound 500 µM): 0.418
- relative viability (NCI-H2023; first compound 5 µM): 0.359
- relative viability (NCI-H2023; first compound 15.81 µM): 0.234
- relative viability (NCI-H2023; first compound 50 µM): 0.312
- relative viability (NCI-H2023; first compound 158.11 µM): 0.0417
- relative viability (NCI-H2023; first compound 500 µM): 0.0077
- relative viability (NCI-H2405; first compound 5 µM): 0.75
- relative viability (NCI-H2405; first compound 15.81 µM): 0.616
- relative viability (NCI-H2405; first compound 50 µM): 0.625
- relative viability (NCI-H2405; first compound 158.11 µM): 0.554
- relative viability (NCI-H2405; first compound 500 µM): 0.533
- relative viability (NCI-H647; first compound 5 µM): 0.384
- relative viability (NCI-H647; first compound 15.81 µM): 0.244
- relative viability (NCI-H647; first compound 50 µM): 0.286
- relative viability (NCI-H647; first compound 158.11 µM): 0.0859
- relative viability (NCI-H647; first compound 500 µM): 0.021
- relative viability (NCI-H441; first compound 5 µM): 0.704
- relative viability (NCI-H441; first compound 15.81 µM): 0.633
- relative viability (NCI-H441; first compound 50 µM): 0.649
- relative viability (NCI-H441; first compound 158.11 µM): 0.247
- relative viability (NCI-H441; first compound 500 µM): 0.0826
- relative viability (EMC-BAC-2; first compound 5 µM): 0.333
- relative viability (EMC-BAC-2; first compound 15.81 µM): 0.287
- relative viability (EMC-BAC-2; first compound 50 µM): 0.284
- relative viability (EMC-BAC-2; first compound 158.11 µM): 0.124
- relative viability (EMC-BAC-2; first compound 500 µM): 0.0704
- relative viability (LCLC-103H; first compound 5 µM): 0.441
- relative viability (LCLC-103H; first compound 15.81 µM): 0.389
- relative viability (LCLC-103H; first compound 50 µM): 0.47
- relative viability (LCLC-103H; first compound 158.11 µM): 0.387
- relative viability (LCLC-103H; first compound 500 µM): 0.424
- relative viability (HOP-62; first compound 5 µM): 0.383
- relative viability (HOP-62; first compound 15.81 µM): 0.305
- relative viability (HOP-62; first compound 50 µM): 0.286
- relative viability (HOP-62; first compound 158.11 µM): 0.191
- relative viability (HOP-62; first compound 500 µM): 0.0544
